Measurements from PubChem BioAssay (NCI).
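Exposure lasted 48 hours, with cells grown in 96-well plates and compounds tested at five concentrations. Here, GI50 denotes the concentration required for 50% inhibition of growth. At the TGI there is no net growth.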

Key:
Assay in all cases: inhibition of tumour cell growth, NCI panel, 48 h
[1] = system: HS 578T breast
[2] = system: OVCAR-3 ovarian
[3] = system: SF-295 CNS
[4] = system: NCI-H226 lung
[5] = system: MDA-MB-435
[6] = system: MALME-3M melanoma
[7] = system: A498 renal
[8] = system: DU-145 prostate
[9] = system: HCT-116 colon
[10] = system: CCRF-CEM leukemia
[11] = system: CAKI-1 renal
[12] = system: SK-MEL-5 melanoma
[13] = system: KM12 colon
[14] = system: UACC-257 melanoma
[15] = system: SR leukemia
[16] = system: HL-60(TB) leukemia
[17] = system: BT-549 breast
[18] = system: UO-31 renal
[19] = system: HOP-62 NSCLC
[20] = system: M14 melanoma
[21] = system: TK-10 renal
[22] = system: OVCAR-5 ovarian
[23] = system: HOP-92 NSCLC
[24] = system: SF-268 CNS
[25] = system: UACC-62 melanoma
[26] = system: SNB-19 CNS
[27] = system: HT29 colon
[28] = system: LOX IMVI melanoma
[29] = system: T-47D breast
[30] = system: OVCAR-4 ovarian
[31] = system: MCF7 breast
[32] = system: NCI-H460 lung
[33] = system: MOLT-4 leukemia
[34] = system: 786-0 renal
[35] = system: SK-OV-3 ovarian
[36] = system: SK-MEL-28 melanoma
[37] = system: K-562 leukemia
[38] = system: SF-539 CNS
[39] = system: A549 NSCLC
[40] = system: HCT-15 colon
[41] = system: NCI/ADR-RES ovarian
[42] = system: HCC-2998 colon
[43] = system: NCI-H23 lung
[44] = system: RXF 393 renal
[45] = system: SK-MEL-2 melanoma
[46] = system: MDA-MB-231 breast
[47] = system: RPMI-8226 leukemia
[48] = system: SNB-75 CNS
[49] = system: SW-620 colon
[50] = system: IGROV1 ovarian
[51] = system: PC-3 prostate
[52] = system: COLO 205 colon
[53] = system: ACHN renal
[54] = system: NCI-H522 lung
[55] = system: SN12C renal
[56] = system: U251 CNS
[57] = system: OVCAR-8 ovarian

O=C1/C(=C\c2ccc(Br)cc2)CN(C(=O)c2ccccc2F)C/C1=C\c1ccc(Br)cc1
GI50 [1]: 2.15 µM | TGI [1]: 6.76 µM | GI50 [2]: 1.91 µM | TGI [2]: 3.52 µM | GI50 [3]: 2.18 µM | TGI [3]: 5.64 µM | GI50 [4]: 5.07 µM | TGI [4]: 13.6 µM | GI50 [5]: 1.1 µM | TGI [5]: 3.33 µM | GI50 [6]: 2.61 µM | TGI [6]: 7.91 µM | GI50 [7]: 2.87 µM | TGI [7]: 10.4 µM | GI50 [8]: 3.79 µM | TGI [8]: 16.8 µM | GI50 [9]: 0.202 µM | TGI [9]: 0.417 µM | GI50 [10]: 0.854 µM | TGI [10]: > 26.5 µM | GI50 [11]: 3.05 µM | TGI [11]: 20 µM | GI50 [12]: 1.93 µM | TGI [12]: 4.04 µM | GI50 [13]: 0.646 µM | TGI [13]: 2.06 µM | GI50 [14]: 2.35 µM | TGI [14]: 6.59 µM | GI50 [15]: 0.339 µM | TGI [15]: 3.2 µM | GI50 [16]: 1.74 µM | TGI [16]: 5.29 µM | GI50 [17]: 1.82 µM | TGI [17]: 3.56 µM | GI50 [18]: 1.53 µM | TGI [18]: 3.16 µM | GI50 [19]: 1.83 µM | TGI [19]: 3.82 µM | GI50 [20]: 1.79 µM | TGI [20]: 3.78 µM | GI50 [21]: 2.84 µM | TGI [21]: 7.46 µM | GI50 [22]: 2.45 µM | TGI [22]: 7.06 µM | GI50 [23]: 2.21 µM | TGI [23]: 6.76 µM | GI50 [24]: 2.81 µM | TGI [24]: 8.83 µM | GI50 [25]: 1.76 µM | TGI [25]: 4.03 µM | GI50 [26]: 2.06 µM | TGI [26]: 6.65 µM | GI50 [27]: 0.61 µM | TGI [27]: 2.17 µM | GI50 [28]: 0.334 µM | TGI [28]: 1.01 µM | GI50 [29]: 3.47 µM | TGI [29]: 24.1 µM | GI50 [30]: 1.96 µM | TGI [30]: 5.01 µM | GI50 [31]: 0.308 µM | TGI [31]: 1.38 µM | GI50 [32]: 3.1 µM | TGI [32]: 11.6 µM | GI50 [33]: 2.83 µM | TGI [33]: > 29.5 µM | GI50 [34]: 1.69 µM | TGI [34]: 3.13 µM | GI50 [35]: 2.43 µM | TGI [35]: 5.71 µM | GI50 [36]: 2.29 µM | TGI [36]: 5.65 µM | GI50 [37]: 1.12 µM | TGI [37]: > 25.1 µM | GI50 [38]: 1.75 µM | TGI [38]: 3.22 µM | GI50 [39]: 2.21 µM | TGI [39]: 6.16 µM | GI50 [40]: 1.91 µM | TGI [40]: 6.65 µM | GI50 [41]: 2.9 µM | TGI [41]: 17.7 µM | GI50 [42]: 1.65 µM | TGI [42]: 3.16 µM | GI50 [43]: 2.49 µM | TGI [43]: 6.39 µM | GI50 [44]: 1.6 µM | TGI [44]: 3.08 µM | GI50 [45]: 4.77 µM | TGI [45]: 17.5 µM | GI50 [46]: 2.73 µM | TGI [46]: 7.89 µM | GI50 [47]: 0.119 µM | TGI [47]: 0.903 µM | GI50 [48]: 2.03 µM | TGI [48]: 7.44 µM | GI50 [49]: 0.913 µM | TGI [49]: 2.95 µM | GI50 [50]: 2.29 µM | TGI [50]: 4.89 µM | GI50 [51]: 1.73 µM | TGI [51]: 4.21 µM | GI50 [52]: 1.91 µM | TGI [52]: 3.82 µM | GI50 [53]: 1.95 µM | TGI [53]: 3.93 µM | GI50 [54]: 2.15 µM | TGI [54]: 4.94 µM | GI50 [55]: 1.98 µM | TGI [55]: 4.92 µM | GI50 [56]: 1.33 µM | TGI [56]: 2.69 µM | GI50 [57]: 2.84 µM | TGI [57]: 15.7 µM
